# Experimental data as given in ChEMBL document CHEMBL1201862, “PubChem BioAssay data set” (2004).
# The source made the active and inactive calls.
# Experiments:
# Cytochrome P450 1A2 = biological target: T1, Cytochrome P450 1A2 (Homo sapiens, UniProt P05177);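 further: PubChem cytochrome P450 panel assay, CYP1A2 panel member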
# T1 sequence (P05177 whole entry): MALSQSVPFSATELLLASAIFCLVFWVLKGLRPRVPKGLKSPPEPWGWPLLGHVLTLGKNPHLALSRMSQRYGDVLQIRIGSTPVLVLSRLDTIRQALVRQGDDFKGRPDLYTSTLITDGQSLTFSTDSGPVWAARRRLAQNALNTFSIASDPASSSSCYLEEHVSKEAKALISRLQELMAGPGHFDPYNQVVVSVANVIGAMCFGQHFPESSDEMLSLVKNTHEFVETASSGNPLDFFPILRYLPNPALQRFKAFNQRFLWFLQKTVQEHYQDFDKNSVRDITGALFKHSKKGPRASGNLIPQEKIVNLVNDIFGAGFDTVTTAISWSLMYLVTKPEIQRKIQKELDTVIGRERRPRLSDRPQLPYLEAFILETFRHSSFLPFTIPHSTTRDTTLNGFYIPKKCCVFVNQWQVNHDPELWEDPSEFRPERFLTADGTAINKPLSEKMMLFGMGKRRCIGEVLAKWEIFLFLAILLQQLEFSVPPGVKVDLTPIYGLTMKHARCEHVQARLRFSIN
# Cytochrome P450 3A4 = Cytochrome P450 3A4 (Homo sapiens, UniProt P08684);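 further: CYP3A4 tested as one member of a cytochrome P450 panel screen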
# Cytochrome P450 2D6 = Cytochrome P450 2D6 (Homo sapiens, UniProt P10635);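 further: CYP2D6 member of a cytochrome P450 panel assay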
# [1] = Luminescence Cell-Based Dose Confirmation HTS to Identify Inhibitors of Platelet Dense Granule Release. [Related pubchem assays: 1663 (Primary HTS), 1678 (Summary of Project)]; format: functional
# [2] = biological target: Luciferin 4-monooxygenase (Photinus pyralis, UniProt P08659); experiment: firefly luciferase enzyme inhibitors, dose response, biochemical, luminescence (AID 1891)
# Cytochrome P450 2C19 = Cytochrome P450 2C19 (Homo sapiens, UniProt P33261); experiment: Cytochrome panel assay with activity outcomes. Panel member name: p450-cyp2c19 Compounds with AC50 equal or less than 10 uM are considered active; format: functional; conditions: read-out: AC50
# Cytochrome P450 2C9 = Cytochrome P450 2C9 (Homo sapiens, UniProt P11712)
# [3] = inhibitors of firefly luciferase expression or activity, dose response, H4 neuroglioma cells, luminescence (AID 1990); format: functional, cell-based
# [4] = Luminescence Cell-Based Dose Response HTS to Identify Inhibitors of 5'UTR Stem-Loop Driven Prion Protein mRNA Translation in H4 Neuroglioblastoma Cells. [Related pubchem assays: 1827 (Project Summary), 1813 (Primary HTS)]; format: functional
# [5] = inhibitors of SNCA 5'UTR-driven reporter translation, confirmation, H4 neuroglioma cells, luminescence (AID 1988); format: functional, cell-based
# [6] = biological target: T2, Corticotropin-releasing factor receptor 2/Corticotropin-releasing factor-binding protein (Homo sapiens, UniProt P24387+Q13324); experiment: activators of CRF receptor 2 with binding protein – uHTS hits, confirmation (AID 602473); format: functional; conditions: read-out: EC50_Mean
# T2 sequence (Q13324 whole entry): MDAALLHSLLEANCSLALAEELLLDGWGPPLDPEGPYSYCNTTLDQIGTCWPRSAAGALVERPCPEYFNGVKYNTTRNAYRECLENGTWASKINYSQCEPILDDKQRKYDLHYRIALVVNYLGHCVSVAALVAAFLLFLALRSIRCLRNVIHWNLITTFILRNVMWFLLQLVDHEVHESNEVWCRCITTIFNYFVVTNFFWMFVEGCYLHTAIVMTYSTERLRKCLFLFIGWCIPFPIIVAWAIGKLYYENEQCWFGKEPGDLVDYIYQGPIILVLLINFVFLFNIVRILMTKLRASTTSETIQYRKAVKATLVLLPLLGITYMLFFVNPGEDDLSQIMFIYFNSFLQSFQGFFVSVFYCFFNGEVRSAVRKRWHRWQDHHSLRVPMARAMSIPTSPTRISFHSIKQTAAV
# T2 sequence (P24387 whole entry): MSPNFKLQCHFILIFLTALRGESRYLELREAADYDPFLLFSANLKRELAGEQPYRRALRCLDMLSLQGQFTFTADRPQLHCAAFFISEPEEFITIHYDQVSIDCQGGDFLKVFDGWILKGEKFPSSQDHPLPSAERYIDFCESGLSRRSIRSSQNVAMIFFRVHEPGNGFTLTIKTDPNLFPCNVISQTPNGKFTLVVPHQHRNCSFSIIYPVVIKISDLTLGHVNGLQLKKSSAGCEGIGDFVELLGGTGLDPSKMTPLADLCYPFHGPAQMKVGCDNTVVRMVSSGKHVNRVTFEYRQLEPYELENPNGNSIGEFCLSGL
# Streptococcus = experiment: Group A Streptococcus viability loss, dose response, counter-screen for streptokinase expression inhibitor project, luminescence, BacTiterGlo (AID 1915); format: functional, organism-based;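 further: potency for reduction of bacterial viability or growth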
# [7] = tested on: Streptococcus sp. 'group A'; experiment: growth inhibition of control SK(-) GAS strain, dose response, counter-screen for streptokinase expression inhibitor project, luminescence, kanamycin, BacTiterGlo, confirmation (AID 1900); format: functional, organism-based
# Streptokinase A = biological target: T3, Streptokinase A (Streptococcus pyogenes serotype M1, UniProt P10520); experiment: S. pyogenes streptokinase expression inhibitors, potency, dose response, plasminogen activation absorbance, OD405 (AID 1914); format: functional, Streptococcus pyogenes M1 GAS;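 further: secreted streptokinase activity via plasminogen activation per viability signal from cell pellet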
# T3 sequence (P10520 whole entry): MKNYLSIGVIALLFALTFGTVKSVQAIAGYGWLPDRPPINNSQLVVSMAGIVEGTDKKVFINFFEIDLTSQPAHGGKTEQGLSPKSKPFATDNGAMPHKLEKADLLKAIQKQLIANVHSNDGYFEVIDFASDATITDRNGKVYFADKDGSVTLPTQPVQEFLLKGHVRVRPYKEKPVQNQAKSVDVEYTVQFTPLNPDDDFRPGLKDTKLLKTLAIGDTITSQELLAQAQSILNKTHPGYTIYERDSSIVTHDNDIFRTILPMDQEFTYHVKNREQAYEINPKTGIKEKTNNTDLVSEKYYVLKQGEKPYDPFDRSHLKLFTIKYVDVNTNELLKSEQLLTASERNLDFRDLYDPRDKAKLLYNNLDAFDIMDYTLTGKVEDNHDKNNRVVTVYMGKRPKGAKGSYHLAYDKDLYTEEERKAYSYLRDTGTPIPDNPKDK
# [8] = inhibitors of clade B AD8 Env fusion, dose response, cell-based, cherry-pick (AID 652062); format: functional;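 further: luciferase signal from cell-cell fusion driven by HIV-1 clade B AD8 Env; potency is for inhibitors of fusion seen as a drop in luminescence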
# [9] = Luminescence Cell-Based Dose Response HTS to Identify Activators of Luciferase Translation or Activity in H4 […] Cells. [Related pubchem assays: 1829 (Project Summary), 1814 (Primary HTS)]; format: functional
# H4 = experiment: Luminescence Cell-Based Dose Response HTS to Identify Activators of 5'UTR Stem-Loop Driven Prion Protein mRNA Translation in H4 Neuroglioblastoma Cells. [Related pubchem assays: 1829 (Project Summary), 1814 (Primary HTS)]; format: functional; conditions: Homo sapiens
# Chain of Cytochrome P450 3A4 (P08684 whole entry): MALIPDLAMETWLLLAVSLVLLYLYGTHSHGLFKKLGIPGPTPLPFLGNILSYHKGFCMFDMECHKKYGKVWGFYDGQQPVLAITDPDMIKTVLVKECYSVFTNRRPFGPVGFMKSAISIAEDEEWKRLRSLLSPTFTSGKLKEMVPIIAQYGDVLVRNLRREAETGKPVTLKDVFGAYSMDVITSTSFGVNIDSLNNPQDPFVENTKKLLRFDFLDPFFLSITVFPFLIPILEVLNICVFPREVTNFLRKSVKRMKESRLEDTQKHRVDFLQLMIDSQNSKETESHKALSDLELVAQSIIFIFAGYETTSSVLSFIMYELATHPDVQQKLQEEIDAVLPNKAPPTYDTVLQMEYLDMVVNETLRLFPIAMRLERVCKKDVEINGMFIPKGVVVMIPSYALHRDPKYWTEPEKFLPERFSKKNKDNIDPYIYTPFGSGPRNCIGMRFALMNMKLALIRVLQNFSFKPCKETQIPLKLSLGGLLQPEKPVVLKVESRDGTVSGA
# Chain of Cytochrome P450 2C9 (P11712 whole entry): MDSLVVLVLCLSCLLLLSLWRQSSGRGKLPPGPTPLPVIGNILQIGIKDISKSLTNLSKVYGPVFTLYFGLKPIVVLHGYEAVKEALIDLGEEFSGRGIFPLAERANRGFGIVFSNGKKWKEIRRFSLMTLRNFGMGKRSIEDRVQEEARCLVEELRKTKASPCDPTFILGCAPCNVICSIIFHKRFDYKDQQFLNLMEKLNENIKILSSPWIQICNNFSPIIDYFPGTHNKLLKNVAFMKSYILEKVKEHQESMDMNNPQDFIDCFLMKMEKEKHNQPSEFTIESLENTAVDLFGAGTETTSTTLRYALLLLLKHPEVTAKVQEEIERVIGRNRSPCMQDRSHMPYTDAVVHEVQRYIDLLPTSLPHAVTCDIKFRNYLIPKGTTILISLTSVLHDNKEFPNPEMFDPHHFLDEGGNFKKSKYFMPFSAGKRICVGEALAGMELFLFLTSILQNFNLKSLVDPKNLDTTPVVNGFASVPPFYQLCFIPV
# Chain of Cytochrome P450 2D6 (P10635 whole entry): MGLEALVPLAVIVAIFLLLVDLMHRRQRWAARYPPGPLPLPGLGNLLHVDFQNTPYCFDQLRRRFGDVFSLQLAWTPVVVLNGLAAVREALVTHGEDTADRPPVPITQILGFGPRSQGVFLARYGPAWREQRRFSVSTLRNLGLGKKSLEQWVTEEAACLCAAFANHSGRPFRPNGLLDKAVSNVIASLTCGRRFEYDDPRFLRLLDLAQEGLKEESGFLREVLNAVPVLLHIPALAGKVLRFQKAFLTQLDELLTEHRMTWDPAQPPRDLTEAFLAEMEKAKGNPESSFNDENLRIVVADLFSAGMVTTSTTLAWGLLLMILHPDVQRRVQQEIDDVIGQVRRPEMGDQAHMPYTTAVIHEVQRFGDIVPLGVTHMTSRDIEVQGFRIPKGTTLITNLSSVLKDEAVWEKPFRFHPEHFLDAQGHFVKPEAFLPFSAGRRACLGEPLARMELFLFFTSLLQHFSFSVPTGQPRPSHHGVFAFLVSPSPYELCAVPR
# Chain of Luciferin 4-monooxygenase (P08659 whole entry): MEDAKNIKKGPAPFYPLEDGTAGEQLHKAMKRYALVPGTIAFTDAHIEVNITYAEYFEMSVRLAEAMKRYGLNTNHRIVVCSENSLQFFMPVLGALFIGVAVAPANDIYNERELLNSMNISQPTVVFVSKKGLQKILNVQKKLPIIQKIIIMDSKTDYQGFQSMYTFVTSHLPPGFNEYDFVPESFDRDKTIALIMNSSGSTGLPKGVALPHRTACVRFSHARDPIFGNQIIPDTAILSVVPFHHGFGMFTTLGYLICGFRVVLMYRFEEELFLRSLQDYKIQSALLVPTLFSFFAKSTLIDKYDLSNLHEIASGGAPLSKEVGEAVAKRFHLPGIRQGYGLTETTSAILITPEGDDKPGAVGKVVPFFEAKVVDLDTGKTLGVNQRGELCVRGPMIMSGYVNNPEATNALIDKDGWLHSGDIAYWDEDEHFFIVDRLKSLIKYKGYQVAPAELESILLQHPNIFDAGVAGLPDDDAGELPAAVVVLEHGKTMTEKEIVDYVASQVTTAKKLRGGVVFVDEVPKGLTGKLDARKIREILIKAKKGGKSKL
# Chain of Cytochrome P450 2C19 (P33261 whole entry): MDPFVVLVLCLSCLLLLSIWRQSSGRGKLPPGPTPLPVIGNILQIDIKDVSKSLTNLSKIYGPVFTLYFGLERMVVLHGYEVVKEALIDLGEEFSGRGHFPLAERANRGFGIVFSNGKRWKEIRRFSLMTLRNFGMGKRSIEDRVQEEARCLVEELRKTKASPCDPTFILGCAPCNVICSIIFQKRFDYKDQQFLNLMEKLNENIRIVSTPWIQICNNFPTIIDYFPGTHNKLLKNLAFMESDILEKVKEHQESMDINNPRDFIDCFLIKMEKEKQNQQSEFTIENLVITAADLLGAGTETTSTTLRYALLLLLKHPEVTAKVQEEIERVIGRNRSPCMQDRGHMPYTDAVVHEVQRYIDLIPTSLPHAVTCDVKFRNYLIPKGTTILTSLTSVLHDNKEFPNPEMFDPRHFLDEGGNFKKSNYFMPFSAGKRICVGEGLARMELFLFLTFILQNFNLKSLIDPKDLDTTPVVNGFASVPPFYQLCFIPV
smiles,measurement,setting,value
FC(F)(F)c1nc2nc(Cl)c(Cl)nc2n1CCCN1CCOCC1,AC50,Cytochrome P450 1A2,3.16 µM (inconclusive)
same,AC50,Cytochrome P450 3A4,5.01 µM (inconclusive)
same,AC50,Cytochrome P450 2D6,3.98 µM (inconclusive)
COC(=O)c1ccc(Oc2nc(C)cc(Oc3ccccc3)n2)cc1,EC50,[1],> 112 µM (not active)
same,EC50,[2],> 112 µM (not active)
CCN(CC)CCNC(=O)c1cc(Br)c(N)cc1OC [BROMOPRIDE],AC50,Cytochrome P450 1A2,10 µM (inconclusive)
same,AC50,Cytochrome P450 2D6,5.01 µM (inconclusive)
Cc1cccc(NC2=NN=C(c3ccc4c(c3)OCCO4)CS2)c1,AC50,Cytochrome P450 2C19,5.01 µM (inconclusive)
same,AC50,Cytochrome P450 2C9,5.62 µM (inconclusive)
same,AC50,Cytochrome P450 3A4,2.82 µM (inconclusive)
same,AC50,Cytochrome P450 2D6,17.8 µM (inconclusive)
Cn1c(NNC(=O)c2ccccc2F)cc(=O)n(C)c1=O,EC50,[3],> 120 µM (not active)
same,EC50,[4],> 120 µM (not active)
same,EC50,[5],> 120 µM (not active)
O=C1c2ccccc2CCC12N=NCC2c1ccc(Cl)cc1 (stereo unspecified),AC50,Cytochrome P450 1A2,20 µM (inconclusive)
same,AC50,Cytochrome P450 3A4,39.8 µM (inconclusive)
same,AC50,Cytochrome P450 2D6,28.2 µM (inconclusive)
CCc1ccccc1/N=C/c1c(C)c(C#N)c2nc3ccccc3n2c1O,EC50,[6],4.75 µM (active)
O=C(c1cccc(F)c1)N1CCC[C@@]2(CCN(Cc3ccncc3)C2)C1,AC50,Cytochrome P450 2C9,20 µM (inconclusive)
same,AC50,Cytochrome P450 2D6,25.1 µM (inconclusive)
O=C(c1nn(Cc2ccccc2)c(=O)c2ccccc12)N1CCN(C/C=C/c2ccccc2)CC1,AC50,Cytochrome P450 1A2,20 µM (inconclusive)
same,AC50,Cytochrome P450 2D6,17.8 µM (inconclusive)
O=C(NC1CCCc2ccccc21)C1CCN(S(=O)(=O)N2CCCCCC2)CC1 (stereo unspecified),AC50,Cytochrome P450 2C9,31.6 µM (inconclusive)
same,AC50,Cytochrome P450 2D6,20 µM (inconclusive)
C/C(=N\NC(=O)c1ccc(O)cc1)c1cccc(NC(=O)c2ccccc2C)c1,EC50,Streptococcus,> 150 µM (not active)
same,EC50,[7],> 150 µM (not active)
same,EC50,Streptokinase A,> 150 µM (not active)
Cc1c(C#N)c(N)nc2c3c(sc12)NC(=O)CC3c1ccc(F)cc1 (stereo unspecified),EC50,[1],> 112 µM (not active)
same,EC50,[2],> 112 µM (not active)
Cc1ccsc1/C=N/N1CCN(C2c3ccccc3-c3ccccc32)CC1,EC50,[1],> 112 µM (not active)
same,EC50,[2],> 112 µM (not active)
CCCCc1ccc(NC(=O)NCc2ccccn2)cc1,EC50,Streptococcus,> 150 µM (not active)
same,EC50,[7],> 150 µM (not active)
same,EC50,Streptokinase A,> 150 µM (not active)
O=S(=O)(Nc1cccc(-c2ccc3nncn3n2)c1)c1cc(F)ccc1F,EC50,[1],> 112 µM (not active)
same,EC50,[2],> 112 µM (not active)
COc1ccc(C(=O)OC2CCN(c3ncc(C(F)(F)F)cc3Cl)CC2)cc1,EC50,Streptococcus,39.7 µM (active)
same,EC50,[7],66.5 µM (active)
same,EC50,Streptokinase A,> 150 µM (not active)
COc1cccc(CNC(=O)c2nnn(CC(=O)Nc3ccc(Br)cc3)c2N)c1,EC50,[3],46.9 µM (active)
same,EC50,[4],103 µM (active)
same,EC50,[5],11 µM (active)
O=C1c2ccccc2C(=O)c2c1cccc2-n1nnc2ccccc21,EC50,[3],16.3 µM (active)
same,EC50,[4],> 120 µM (not active)
same,EC50,[5],> 120 µM (not active)
O=c1c(CCc2ccccc2)nc2cncnc2n1-c1ccccc1,AC50,Cytochrome P450 2C9,25.1 µM (inconclusive)
same,AC50,Cytochrome P450 3A4,5.01 µM (inconclusive)
same,AC50,Cytochrome P450 2D6,25.1 µM (inconclusive)
O=C(CCCCCNC(=O)c1ccccc1)N=Nc1c(O)[nH]c2c(Br)cc(Br)cc12,EC50,Streptococcus,28.4 µM (active)
same,EC50,[7],6.76 µM (active)
same,EC50,Streptokinase A,> 150 µM (not active)
COc1cc(C2C(C#N)=C(N)N(Nc3ccccc3)C3=C2C(=O)CC(C)(C)C3)ccc1OCc1ccccc1 (stereo unspecified),EC50,[3],13.4 µM (active)
same,EC50,[4],18.7 µM (active)
same,AC50,Cytochrome P450 2C9,0.794 µM (inconclusive)
same,EC50,[5],> 120 µM (not active)
COC(=O)c1sccc1NC(=O)Nc1ccc(OC)cc1,EC50,[1],1.33 µM (active)
same,EC50,[2],0.358 µM (active)
Fc1ccc(-n2cc(-c3ccccc3)c3c(NN4CCOCC4)ncnc32)cc1,EC50,[3],> 120 µM (not active)
same,EC50,[5],> 120 µM (not active)
CCN(CC)S(=O)(=O)c1cccc(NC(=O)COC(=O)CCC(=O)c2ccc(F)cc2)c1,EC50,[1],> 112 µM (not active)
same,EC50,[2],> 112 µM (not active)
COCC(=O)N1CCC2(CCCN(Cc3ccncc3)C2)CC1,AC50,Cytochrome P450 3A4,12.6 µM (inconclusive)
same,AC50,Cytochrome P450 2D6,15.8 µM (inconclusive)
CC(C)CC(=O)Nc1ccc(C(=O)NNC(=S)NC(=O)C2CCCCC2)cc1,EC50,Streptococcus,5.23 µM (active)
same,EC50,[3],12.5 µM (active)
same,EC50,[7],1.65 µM (active)
same,EC50,[4],14.8 µM (active)
same,EC50,[5],12.4 µM (active)
COc1cccc(S(=O)(=O)N2CC3(CN(C(=O)Nc4cccc(F)c4)[C@H](CO)c4[nH]c5cc(OC)ccc5c43)C2)c1,AC50,[8],22 µM (active)
CCCCOC(=O)N/N=C/C=C/c1ccccc1,EC50,[1],> 112 µM (not active)
same,EC50,[2],> 112 µM (not active)
CCOc1ccc(C2C(C#N)=C(N)N3C(=C2C#N)Sc2ccccc23)cc1 (stereo unspecified),EC50,[6],8.06 µM (active)
CC1(c2ccc(OC(F)F)cc2)NC(=O)N(CC(=O)Nc2cccnc2Cl)C1=O (stereo unspecified),EC50,[6],15 µM (active)
COc1cnc(-c2ccccn2)nc1Oc1ccccc1Cl,EC50,Streptococcus,> 150 µM (not active)
same,EC50,[7],> 150 µM (not active)
same,EC50,Streptokinase A,> 150 µM (not active)
C=C1CCC2[C@](C)(CO)[C@H](O)CC[C@@]2(C)[C@@H]1C/C=C1\C(=O)OC[C@H]1O (stereo partly specified),EC50,[9],> 120 µM (not active)
same,EC50,H4,33 µM (active)
Cc1onc(C(=O)Nc2ccc3c(c2)OCO3)c1[N+](=O)[O-],EC50,[1],> 112 µM (not active)
same,EC50,[2],> 112 µM (not active)
CC(C)Cc1csc(NC(=O)c2ccc(Br)cc2)c1C(=O)O,EC50,Streptococcus,6.59 µM (active)
same,EC50,[7],3.59 µM (active)
same,EC50,Streptokinase A,> 150 µM (not active)
COC(=O)c1nc(NC(=S)NC(=O)c2cccs2)sc1C,EC50,Streptococcus,> 150 µM (not active)
same,EC50,[7],9.59 µM (active)
same,EC50,Streptokinase A,> 150 µM (not active)
